# From patent US11534457B2, “Use of dextran sulfate” (priority 2017, dated 2022)
# Columns and labels:
# [1] = test system: Mouse cortical neurons (Lonza); test: Gene expression array and pathway analysis, cortical neurons; format: cell-based; details: 0.01 mg/ml, 48 h
# Method: (§1) For each cell line, n=8×25 cm^2 culture flasks were set up. Two flasks were harvested for each cell type on the day of treatment (24 hours after seeding). This represents the Day0 time point. From the remaining flasks, three flasks were treated with Control Medium and three were treated with Culture Medium (CM) containing LMW-DS to give a final concentration of 0.01 mg/ml. Cells from the treated flasks were collected after 48 hours. Therefore the collected data represent (a) untreated cells (Day0 Controls and Day2 Controls) and (b) cells treated with LMW-DS for 48 hours (Day2 LMW-DS treated).
# (§2) 25 cm^2 flasks were coated by adding 2 ml per flask of a solution of 50 μg/ml poly-d-lysine in Hank's balanced salt solution (HBSS) and incubating overnight at 37° C. in the dark. Flasks were washed with cell culture water and air-dried for 30 min in the dark. Flasks were coated by adding 1 ml per flask of a solution of 25 μg/ml laminin in phosphate-buffered saline (PBS) and incubating for 2 hour at 37° C. in the dark. The laminin flasks were washed with PBS three times before plating cells.
# Medium was prepared by adding 10 ml B-27 Serum-Free Supplement and 2.5 ml GlutaMAX™-1 Supplement to 500 ml of Neurobasal medium. The medium was pre-warmed to 37° C. Cells from 12 vials were thawed sequentially in a 37° C. water bath for no longer than 2 min and gently transferred into a 15 ml tube. 9 ml of medium was gently added drop-wise to each. The cell suspension was mixed by inverting the tubes carefully twice.
# The cells were centrifuged for 5 minutes at 200×g. Supernatant was removed (to the last 0.5 ml) and cells were gently resuspended by trituration. The cells from the 12 vials were mixed and distributed equally into the previously coated 25 cm^2 flasks (n=8). Cells were incubated at 37° C. with 5% CO2 for 24 hours.
# (§3) LMW-DS was provided at a stock concentration of 20 mg/ml and was kept in a temperature monitored refrigerator at 4° C. A fresh […]LMW-DS stock (1.0 mg/ml) was prepared in sterile DMEM-F12. The concentrated drug stock was sterile filtered and added to the respective culture media (19.6 ml CM and 0.4 ml LMW-DS stock solution). The Control was made using 19.6 ml CM and 0.4 ml of DMEM-F12. LMW-DS and CM were added to the respective flasks (5 ml each) to reach the 0.01 mg/ml concentration of LMW-DS in each dish with a total of 10 ml CM each.
# (§4) CM was aspirated into a clean and labelled 15 ml Falcon tube. The flasks (without culture medium) were placed into the −80° C. freezer for 30 minutes. The CM in the Falcon tubes were spun at 3000×g for 5 minutes. Supernatant was removed and the small pellet was re-suspended in 2.5 ml Trizol:Water (4:1) solution at room temperature (RT, […]).
# (§5) Two aliquots of 1 ml lysate was removed from each sample and 200 μl of chloroform was added to each (0.2 ml of chloroform per 1 ml of TRIzol Reagent used during the cell lysis step) and the tube was shaken vigorously. Samples were stored at RT for 2-3 minutes and subsequently centrifuged at 12,000×g for 15 minutes at 4° C.
# (§6) The expression data were downloaded into separate files for each cell line. The ‘Background corrected’ expression is the data from the “gProcessedSignal” of the arrays that is the result of the background signal extracted from the actual signal of the relevant probe. This is the most often used variable in array analysis. The background corrected signal was log 2 transformed for all samples for statistical analysis. To reduce the false discovery rate in the samples, the signals that were below ‘expression level’ were removed. The ‘below expression’ level was set at 5 for the log 2 transformed expression values.
# (§7) Based on the expression pattern of the Control probes on each array it was decided to carry out Median Centering for all arrays before analysis to reduce the variability of the results. […]
# [2] = test system: Mouse motor neurons (Aruna); test: Gene expression array and pathway analysis, motor neurons; format: cell-based
# Method: as §1, §2
# The culture medium was prepared according to Table 5.
# Medium (see Table 5) was pre-warmed to 37° C. Cells were thawed in a 37° C. water bath for no longer than 2 min. 9 ml of media was gently added drop-wise. The cell suspension was mixed by inverting the tube carefully twice. The cells were counted with a Cellometer. The cells were centrifuged for 5 minutes at 200×g. Supernatant was removed (to the last 0.5 ml) and cells were gently resuspended by trituration. The cells from the 8 vials were mixed and distributed equally into the previously coated 25 cm^2 flasks (n=8). Cells were incubated at 37° C. with 5% CO2 for 24 hours before treatment.
# as §3, §4, §5, §6, §7
substance,measurement,setting,value
low molecular weight dextran sulfate [LMW-DS],MMP-related genes differentially expressed,[1],none
same,cellular attachment from expression patterns (neurons),[1],significant inhibition of cellular attachment
same,downstream effector molecules of GDF7,[1],activated
same,glutamate production,[1],dis not alter
same,"number of genes differentially expressed, D0 control to the D2 LMW-DS treated samples (second statement)",[1],247 genes
same,"number of genes differentially expressed, D0 control vs D2 LMW-DS treated",[1],609 genes
same,number of genes: abolished nutrient effect / no effect,[1],572
same,number of genes: abolished nutrient effect / significant downregulation,[1],7
same,number of genes: abolished nutrient effect / significant upregulation,[1],33
same,number of genes: abolished nutrient effect / total,[1],612
same,number of genes: enhanced response to nutrients / significant downregulation,[1],158
same,number of genes: enhanced response to nutrients / significant upregulation,[1],43
same,number of genes: enhanced response to nutrients / total,[1],612
same,number of genes: new effect induced by LMW-DS / no effect,[1],19
same,number of genes: new effect induced by LMW-DS / significant downregulation,[1],22
same,number of genes: new effect induced by LMW-DS / significant upregulation,[1],7
same,number of genes: new effect induced by LMW-DS / total,[1],48
same,number of genes: not different from control / significant downregulation,[1],95
same,number of genes: not different from control / significant upregulation,[1],221
same,number of genes: not different from control / total,[1],316
same,number of genes: total / no effect,[1],591
same,number of genes: total / significant downregulation,[1],282
same,number of genes: total / significant upregulation,[1],304
same,number of genes: total / total,[1],1177
same,"oxidative-stress effects: amyloid-β and Lewy body pathology, mitochondrial dysfunction",[1],able to prevent and reverse most of these deleterious effects
same,HtrA2,"[2]; 0.01 mg/ml, 48 h",inhibition
same,amyloid-β production,"[2]; 0.01 mg/ml, 48 h",preventing amyloid-β production
same,apoptosis pathway (F in FIG. 18),"[2]; 0.01 mg/ml, 48 h",preventing and inhibiting apoptosis
same,cellular attachment from expression patterns (neurons),"[2]; 0.01 mg/ml, 48 h",significant inhibition of cellular attachment
same,fatty acid oxidation,"[2]; 0.01 mg/ml, 48 h",inhibiting fatty acid oxidation
same,inhibition of glutamate production at baseline,"[2]; 0.01 mg/ml, 48 h",not affected
same,level of H2O2,"[2]; 0.01 mg/ml, 48 h",reduced
same,"number of genes differentially expressed, D0 control to the D2 LMW-DS treated samples (second statement)","[2]; 0.01 mg/ml, 48 h",425 genes
same,"number of genes differentially expressed, D0 control vs D2 LMW-DS treated","[2]; 0.01 mg/ml, 48 h",315 genes
same,number of genes: abolished nutrient effect / no effect,"[2]; 0.01 mg/ml, 48 h",177
same,number of genes: abolished nutrient effect / significant downregulation,"[2]; 0.01 mg/ml, 48 h",47
same,number of genes: abolished nutrient effect / significant upregulation,"[2]; 0.01 mg/ml, 48 h",40
same,number of genes: abolished nutrient effect / total,"[2]; 0.01 mg/ml, 48 h",264
same,number of genes: enhanced response to nutrients / significant downregulation,"[2]; 0.01 mg/ml, 48 h",36
same,number of genes: enhanced response to nutrients / significant upregulation,"[2]; 0.01 mg/ml, 48 h",103
same,number of genes: enhanced response to nutrients / total,"[2]; 0.01 mg/ml, 48 h",139
same,number of genes: new effect induced by LMW-DS / no effect,"[2]; 0.01 mg/ml, 48 h",108
same,number of genes: new effect induced by LMW-DS / significant downregulation,"[2]; 0.01 mg/ml, 48 h",375
same,number of genes: new effect induced by LMW-DS / significant upregulation,"[2]; 0.01 mg/ml, 48 h",71
same,number of genes: new effect induced by LMW-DS / total,"[2]; 0.01 mg/ml, 48 h",554
same,number of genes: not different from control / significant downregulation,"[2]; 0.01 mg/ml, 48 h",104
same,number of genes: not different from control / significant upregulation,"[2]; 0.01 mg/ml, 48 h",75
same,number of genes: not different from control / total,"[2]; 0.01 mg/ml, 48 h",179
same,number of genes: total / no effect,"[2]; 0.01 mg/ml, 48 h",285
same,number of genes: total / significant downregulation,"[2]; 0.01 mg/ml, 48 h",562
same,number of genes: total / significant upregulation,"[2]; 0.01 mg/ml, 48 h",289
same,number of genes: total / total,"[2]; 0.01 mg/ml, 48 h",1136
same,upstream regulator AGT: activation z-score,[2]; D0 to LMW-DS treatment,2.631
same,upstream regulator AGT: predicted activation state relative D2 control,[2]; D0 to LMW-DS treatment,Activated
same,upstream regulator BMP4: activation z-score,[2]; D0 to LMW-DS treatment,0.972
same,upstream regulator BMP4: predicted activation state relative D2 control,[2]; D0 to LMW-DS treatment,More activated relative to control
same,upstream regulator BMP6: activation z-score,[2]; D0 to LMW-DS treatment,0.13
same,upstream regulator BMP6: predicted activation state relative D2 control,[2]; D0 to LMW-DS treatment,More activated relative to control
same,upstream regulator BMP7: activation z-score,[2]; D0 to LMW-DS treatment,1.092
same,upstream regulator BMP7: predicted activation state relative D2 control,[2]; D0 to LMW-DS treatment,More activated relative to control
same,upstream regulator INHA: activation z-score,[2]; D0 to LMW-DS treatment,0.588
same,upstream regulator INHA: predicted activation state relative D2 control,[2]; D0 to LMW-DS treatment,More activated relative to control
